For the assay, the system named is HIV in the HTLV-1 transformed cell line MT-4. The assay can be described thus: organism not typed. Conditions: MT-4 cells, luciferase/cell titer glo readout after 96 hours, 10 point dose response. Format: cell-based. In general terms: In ATP-based viability assays light output follows the ATP content of the culture.

Each structure is given as a SMILES string.

For orientation: IC50 means the concentration that inhibits the measured activity by half. Low readings indicate greater potency in that assay, high ones weaker potency in that assay.

For `Cc1ccc(-c2c(C)c3c(c(C)c2[C@H](OC(C)(C)C)C(=O)O)CN(C(=O)N2CCCCC2)C3)c(Cl)c1` [Example 322, (2S)-2-(tert-butoxy)-2-(6-(2-chloro-4-methylphenyl)-4,7-dimethyl-2-(piperidine-1-carbonyl)isoindolin-5-yl)acetic acid], the IC50 was 5 nM.

As to `Cc1cc(Cl)ccc1-c1c(C)c2c(c(C)c1C(OC(C)(C)C)C(=O)O)CN(C(=O)N1CCC(F)(F)C1)C2` (stereo not shown) [Example 323, 2-(tert-butoxy)-2-(6-(4-chloro-2-methylphenyl)-2-(3,3-difluoropyrrolidine-1-carbonyl)-4,7-dimethylisoindolin-5-yl)acetic acid], the 50% inhibitory concentration (IC50) (MT4, 96 h) came to 13 nM.

Take `Cc1cc(Cl)ccc1-c1c(C)c2c(c(C)c1[C@H](OC(C)(C)C)C(=O)O)CN(C(=O)C1CCCCC1)C2` [Example 324, (2S)-2-(tert-butoxy)-2-(6-(4-chloro-2-methylphenyl)-2-(cyclohexanecarbonyl)-4,7-dimethylisoindolin-5-yl)acetic acid]: inhibition (MT4, 96 h) was half-maximal at 13 nM (IC50).

Where the note is “MT4, 96 h”, `Cc1cc(Cl)ccc1-c1c(C)c2c(c(C)c1[C@H](OC(C)(C)C)C(=O)O)CN(C(=O)CC(C)(C)C)C2` [Example 325, (2S)-2-(tert-butoxy)-2-(6-(4-chloro-2-methylphenyl)-2-(3,3-dimethylbutanoyl)-4,7-dimethylisoindolin-5-yl)acetic acid] showed an IC50 of 13 nM. In other words, the double-digit nanomolar range.

The record behind these values is US10112899B2 (ViiV HEALTHCARE UK LIMITED, priority 2014, dated 2018).
